Data: article PMC11339798, “Dual inhibitors of Pseudomonas aeruginosa virulence factors LecA and LasB” (Chemical Science, 2024)

What was measured:
[1] = system: LecA-FITC binding to human A549 cells; assay: Inhibition of LecA-FITC adhesion to A549 cells by fluorescence microscopy; format: cell-based; details: 100 μM compound, 10 μM LecA-FITC, 4 °C, 30 min
Description: LecA-mediated cell adhesion is crucial for the initial infection and host-cell invasion of P. aeruginosa. Therefore, compounds 1 and 2, a combination of 1+2 and the dual inhibitor 12 were assessed for their ability to inhibit LecA-binding to human A549 cells. 10 μM of LecA-FITC and different concentrations of the respective compounds were incubated at 4 °C for 30 min with confluent A549 cells.
10 min, facilitating the separation of bacterial cells from the supernatant. The latter was filtered through a 0.22 µm sterile filter and stored at –80 °C until further use. […]
CO2. […] The plates were then incubated for an additional 30 min at 37 °C and then, the UV absorbance was measured using a PHERAstar microplate reader. The test samples were read at a wavelength of 550 nm, while the blank was read at 620 nm. At last, the data were statistically analyzed and presented graphically using GraphPad Prism 9 (Figure S4 and S5). […]
have any negative effects. The plate was then incubated at 4 °C for 30 min and wells were washed 5 times with PBS prior to imaging via fluorescence microscopy.
Fluorescence image acquisition, processing, and quantification
Fluorescence images were captured using an inverted fluorescence microscope (Leica DMi8) equipped with a 20x objective (HC PL APO CS2 20x/0.75 IMM UV), an FITC filter cube (EX: […]

A549 cells = assay: Inhibition of LasB-dependent cytotoxicity of P. aeruginosa PAO1 culture supernatant on A549 cells (MTT); format: cell-based, human; details: for A549 cell viability under PAO1 culture supernatant: 10% (v/v) PAO1 supernatant
Description: Next, we set out to analyze the ability of the dual inhibitor 12 and the individual treatment or combination of galactoside 1 and thiol 2 to reduce LasB-dependent cytotoxicity from P. aeruginosa PAO1 culture supernatant on A549 cells. None of the investigated compounds influenced A549 cell viability at 100 μM in the absence of bacterial culture supernatant (Fig. S4 ^†). […]
In vitro evaluation of 12 and a combination of 1 and 2 using P. aeruginosa culture supernatant and A549 cells in a cell viability assay
The A549 cell line, derived from human lung adenocarcinoma, was grown in Dulbecco's Modified Eagle Medium (DMEM) supplemented with 10% Fetal Bovine Serum (FBS) and 1% penicillin-streptomycin. The cells were cultured following standard protocols for cell […]
To prepare the bacterial culture supernatant, individual flasks containing 15 mL of lysogeny broth (LB) culture medium were inoculated with PAO1 or PAO1 ΔlasB strains. Culture flasks were placed on a shaker and incubated at 37 °C and 180 rpm overnight for 18 hours. Following incubation, the bacterial cultures were subjected to centrifugation at 4 °C and 5000 rpm for […]
10 min, facilitating the separation of bacterial cells from the supernatant. The latter was filtered through a 0.22 µm sterile filter and stored at –80 °C until further use.
In a flat bottom 96-well plate (Corning™ Costar™), each well was seeded with 2.5–3.5*10 3 cells in 100 µL DMEM/FCS and then incubated at a temperature of 37 °C with 5% CO2 for 24 hours. Then, compounds 12 and 1 combined with 2 in concentrations of 100 µM, 10 µM, and 1 µM were mixed with 10% (v/v) of culture supernatant of P. aeruginosa PAO1 (DSM 22644, ATCC 15692) in DMEM/FCS. To minimize the potential negative effect of DMSO, the compound was initially dissolved in 99.9% DMSO, and a final assay concentration of 0.5% DMSO was applied. Additionally, the cells were exposed to 10% (v/v) PAO1 ΔlasB culture supernatant to analyze the effect caused by LasB, while DMEM/FCS without any treatment served as a control. The plates were then incubated at 37 °C with 5% CO2 for 24 hours before conducting the MTT assay.
To assess cell viability, the medium in the well plates was aspirated and a single wash was performed using 100 µL of phosphate buffered saline, pH 7.4 (PBS). A solution of 5 mg MTT (3-(4,5-dimethylthiazol-2-yl)-2,5-diphenyl tetrazolium bromide) per mL PBS was prepared and diluted to a concentration of 10% (v/v) in DMEM/FCS. Subsequently, 100 µL of this MTT solution was added to each well, and the plates were incubated at 37 °C for 3 hours with 5%
CO2. After incubation, the MTT solution was carefully removed, and the formazan crystals were dissolved by adding 150 µL of lysis solution (250 mL DMSO, 25 g SDS, and 1.25 mL AcOH) to each well. The plates were then incubated for an additional 30 min at 37 °C and then, the UV absorbance was measured using a PHERAstar microplate reader. The test samples were read at a wavelength of 550 nm, while the blank was read at 620 nm. At last, the data were statistically analyzed and presented graphically using GraphPad Prism 9 (Figure S4 and S5).
Evaluation of compounds 1, 2 and 12 in inhibiting LecA adhesion to A549 cells via […]
The A549 cell line were cultured following the protocols for cell maintenance described above.
In a flat-bottom cell culture black 96-well plate (Greiner Bio-One, #Cat 655090) each well was seeded with 1*104 cells in 100 µL DMEM/FCS and subsequently, incubated overnight at 37 °C with 5% CO2. […]

## CC(C)CC(S)C(=O)Nc1ccc(S[C@@H]2O[C@H](CO)[C@H](O)[C@H](O)[C@H]2O)cc1 (some centres unmarked) [Compound 12]
[1]
  inhibition of binding of LecA-FITC to A549 cells: significantly inhibited the binding of LecA-FITC to A549 cells to the background level
A549 cells; 1 μM compound
  A549 cell viability under PAO1 culture supernatant: statistically significant beneficial effect on cell viability
A549 cells; 10 μM compound
  A549 cell viability under PAO1 culture supernatant: increase in cell viability compared to the combination of the individual LasB (2) and LecA (1) inhibitors
A549 cells; 100 μM compound
  A549 cell viability under PAO1 culture supernatant: increase in cell viability compared to the combination of the individual LasB (2) and LecA (1) inhibitors
A549 cells; 100 μM compound, compared with LasB-deficient strain control
  cytotoxicity of PAO1 culture supernatant in presence of compound: reached that of the LasB-deficient strain
